The values that follow come from patent US7183260B2, “C-terminal modified oxamyl dipeptides as inhibitors of the ICE/ced-3 family of cysteine proteases” (Idun Pharmaceuticals, Inc., priority 1998, dated 2007).

pKi: −log10 of the molar value. Where two headings read alike, the source gives them in different places.

Common to all, as to format: biochemical
For one assay, the target named is T1, mICE (Mus musculus, UniProt P29452).
T1 sequence (P29452 123-296 limits assumed): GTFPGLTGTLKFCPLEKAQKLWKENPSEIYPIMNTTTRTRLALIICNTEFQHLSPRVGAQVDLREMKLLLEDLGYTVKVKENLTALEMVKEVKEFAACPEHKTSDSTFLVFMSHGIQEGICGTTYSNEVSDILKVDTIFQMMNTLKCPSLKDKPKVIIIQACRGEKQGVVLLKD
T1 sequence (P29452 315-402 limits assumed): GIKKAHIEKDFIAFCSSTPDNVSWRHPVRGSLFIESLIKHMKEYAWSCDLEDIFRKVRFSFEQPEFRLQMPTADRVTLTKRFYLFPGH
Nature of the assay: Dissociation constant Ki and irreversible rate constant k3 for irreversible inhibitors (ICE).

A further assay addresses MCH-5 (Homo sapiens, UniProt Q14790). Nature of the assay: Dissociation constant Ki and irreversible rate constant k3 for irreversible inhibitors (Mch5).
Another assay addresses T2, CPP32 (Homo sapiens, UniProt P42574).
T2 sequence (P42574 29-175 limits assumed): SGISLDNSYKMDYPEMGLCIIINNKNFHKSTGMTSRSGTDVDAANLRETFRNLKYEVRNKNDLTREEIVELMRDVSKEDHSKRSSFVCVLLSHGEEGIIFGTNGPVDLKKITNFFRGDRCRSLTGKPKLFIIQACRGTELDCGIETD
T2 sequence (P42574 176-277 limits assumed): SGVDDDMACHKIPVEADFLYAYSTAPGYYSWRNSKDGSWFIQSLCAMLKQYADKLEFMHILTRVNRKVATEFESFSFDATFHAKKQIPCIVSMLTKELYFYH
Nature of the assay: Dissociation constant Ki and irreversible rate constant k3 for irreversible inhibitors (CPP32).

The next assay concerns the target T3, MCH-2 (Homo sapiens, UniProt P55212).
T3 sequence (P55212 24-179 limits assumed): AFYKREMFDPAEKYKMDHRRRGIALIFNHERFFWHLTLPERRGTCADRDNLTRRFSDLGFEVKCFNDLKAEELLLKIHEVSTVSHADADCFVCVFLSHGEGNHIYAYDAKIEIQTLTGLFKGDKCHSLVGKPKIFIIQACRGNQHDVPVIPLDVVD
T3 sequence (P55212 194-293 limits assumed): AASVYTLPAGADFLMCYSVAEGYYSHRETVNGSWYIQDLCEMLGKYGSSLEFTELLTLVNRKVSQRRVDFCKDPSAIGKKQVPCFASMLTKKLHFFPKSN
Nature of the assay: Dissociation constant Ki and irreversible rate constant k3 for irreversible inhibitors (Mch2).

[1] abbreviates: continuous assay 60 min, reaction initiated by adding enzyme to substrate-inhibitor mixture.

Chain of MCH-5 (Q14790 217-374 limits assumed, species assumed): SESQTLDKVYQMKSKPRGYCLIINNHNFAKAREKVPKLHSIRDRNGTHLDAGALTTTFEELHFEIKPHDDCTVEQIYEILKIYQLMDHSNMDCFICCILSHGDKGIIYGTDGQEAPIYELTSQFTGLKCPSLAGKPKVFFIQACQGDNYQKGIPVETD
Chain of MCH-5 (Q14790 385-479 limits assumed, species assumed): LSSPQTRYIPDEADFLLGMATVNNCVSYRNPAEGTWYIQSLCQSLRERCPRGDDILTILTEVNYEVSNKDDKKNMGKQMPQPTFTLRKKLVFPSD

On to `C[C@H](NC(=O)C(=O)Nc1ccccc1I)C(=O)N[C@@H](CC(=O)O)C(=O)COC(=O)c1c(Cl)cccc1Cl` [Example 38], for which, on mICE (setting [1]), the pKi was 6.82 and the “mICE k3/Ki” value is recorded as 90,100 moles^−1 seconds^−1. Moreover, on MCH-5 (setting [1]), the pKi was 8.22 and the “MCH-5 k3/Ki” value was 337,000 moles^−1 seconds^−1. Moreover, at CPP32 (setting [1]), the “CPP32 k3/Ki” value is recorded as 942,000 moles^−1 seconds^−1 and the pKi was 7.89. Further, on MCH-2 (setting [1]), the pKi is 8.22 and the “MCH-2 k3/Ki” value is 360,000 moles^−1 seconds^−1.

For `C[C@H](NC(=O)C(=O)Nc1ccccc1-c1ccccc1)C(=O)N[C@@H](CC(=O)O)C(=O)COc1ccccc1F` [Example 28], on mICE (setting [1]), the pKi is 7.34 and the “mICE k3/Ki” value is given as 167,000 moles^−1 seconds^−1. Moreover, at MCH-5 (setting [1]), the pKi is 8.24 and the “MCH-5 k3/Ki” value is 37,800 moles^−1 seconds^−1. Besides, on CPP32 (setting [1]), the “CPP32 k3/Ki” value was 55,600 moles^−1 seconds^−1 and the negative-log Ki (pKi) was 6.96. On MCH-2 (setting [1]), the pKi is 7.38 and the “MCH-2 k3/Ki” value is on record as 35,000 moles^−1 seconds^−1.

Consider `C[C@H](NC(=O)C(=O)NC1CCCCC1)C(=O)N[C@@H](CC(=O)O)C(=O)COP(=O)(c1ccccc1)c1ccccc1` [Example 56], for which, at mICE (setting [1]), the pKi was 8.28 and the “mICE k3/Ki” value is 2,032,000 moles^−1 seconds^−1. Also, at MCH-5 (setting [1]), the pKi is 8.60 and the “MCH-5 k3/Ki” value is 1,790,000 moles^−1 seconds^−1. Moreover, on CPP32 (setting [1]), the “CPP32 k3/Ki” value was 137,000 moles^−1 seconds^−1 and the pKi is 7.02. At MCH-2 (setting [1]), the pKi was 7.60 and the “MCH-2 k3/Ki” value is 97,500 moles^−1 seconds^−1.

Consider `COC(=O)c1cc(OCC(=O)[C@H](CC(=O)O)NC(=O)[C@@H](NC(=O)C(=O)Nc2cccc3ccccc23)C(C)C)no1` [Example 13], for which the pKi was 7.62 at mICE (setting [1]), 7.64 at MCH-5 (setting [1]), 7.17 at CPP32 (setting [1]) and 7.02 at MCH-2 (setting [1]).

For the compound `CC(C)[C@H](NC(=O)C(=O)Nc1cccc2ccccc12)C(=O)N[C@@H](CC(=O)O)C(=O)COP(=O)(c1ccccc1)c1ccccc1` [Example 11], the negative-log Ki (pKi) is 8.30 at mICE (setting [1]), 8.89 on MCH-5 (setting [1]), 7.60 at CPP32 (setting [1]) and 7.96 at MCH-2 (setting [1]).

Regarding `C[C@H](NC(=O)C(=O)NC12CC3CC(CC(C3)C1)C2)C(=O)N[C@@H](CC(=O)O)C(=O)COC(=O)c1c(Cl)cccc1Cl` [Example 54], at mICE, the pKi was 6.46 and the “mICE k3/Ki” value is given as 46,000 moles^−1 seconds^−1. Besides, on MCH-5, the pKi is 7.10 and the “MCH-5 k3/Ki” value is listed as 18,700 moles^−1 seconds^−1. On CPP32, the “CPP32 k3/Ki” value is 20,500 moles^−1 seconds^−1 and the pKi was 6.39. In addition, on MCH-2, the pKi was 6.92 and the “MCH-2 k3/Ki” value is listed as 21,100 moles^−1 seconds^−1.

Take `CC(C)[C@H](NC(=O)C(=O)Nc1nc2ccccc2[nH]1)C(=O)N[C@@H](CC(=O)O)C(=O)COc1c(F)c(F)cc(F)c1F` [Example 88]: at mICE (setting [1]), the pKi was 6.44 and the “mICE k3/Ki” value is reported as 27,400 moles^−1 seconds^−1. Further, at MCH-5 (setting [1]), the pKi is 6.89 and the “MCH-5 k3/Ki” value is 20,800 moles^−1 seconds^−1. Besides, on CPP32 (setting [1]), the “CPP32 k3/Ki” value is given as 3,130 moles^−1 seconds^−1 and the pKi is 5.50. Also, on MCH-2 (setting [1]), the negative-log Ki (pKi) is 5.84 and the “MCH-2 k3/Ki” value was 1,840 moles^−1 seconds^−1.

Regarding `C[C@H](NC(=O)C(=O)Nc1cccc2c1CCCC2)C(=O)N[C@@H](CC(=O)O)C(=O)COP(=O)(c1ccccc1)c1ccccc1` [Example 48], on mICE (setting [1]), the pKi is 7.96 and the “mICE k3/Ki” value is recorded as 905,000 moles^−1 seconds^−1. For the same compound, on MCH-5 (setting [1]), the pKi was 8.39 and the “MCH-5 k3/Ki” value is listed as 1,150,000 moles^−1 seconds^−1. Besides, on CPP32 (setting [1]), the “CPP32 k3/Ki” value is 139,000 moles^−1 seconds^−1 and the pKi is 7.16. On MCH-2 (setting [1]), the negative logarithm of the Ki (pKi) was 7.66 and the “MCH-2 k3/Ki” value is recorded as 132,000 moles^−1 seconds^−1.

On to `CC(C)[C@H](NC(=O)C(=O)Nc1cccc2ccccc12)C(=O)NC(CC(=O)O)C(=O)CF` (mixture of isomers) [Example 3, (3RS)-3-[N-(N′-(1-NAPHTHYL)OXAMYL)VALINYL]AMINO-5-FLUORO-4-OXOPEINTANOIC ACID], for which, at mICE (setting [1]), the pKi is 8.74 and the “mICE k3/Ki” value is on record as 2,170,000 moles^−1 seconds^−1. At MCH-5 (setting [1]), the pKi was 8.89 and the “MCH-5 k3/Ki” value is recorded as 1,160,000 moles^−1 seconds^−1. For the same compound, at CPP32 (setting [1]), the “CPP32 k3/Ki” value is recorded as 413,000 moles^−1 seconds^−1 and the pKi is 7.49. Further, on MCH-2 (setting [1]), the pKi is 7.77 and the “MCH-2 k3/Ki” value is 199,000 moles^−1 seconds^−1.

With `CCCCCCCc1ccc(NC(=O)C(=O)N[C@H](C(=O)N[C@@H](CC(=O)O)C(=O)COc2c(F)c(F)cc(F)c2F)C(C)C)cc1` [Example 94], at mICE (setting [1]), the pKi was 7.62 and the “mICE k3/Ki” value was 657,000 moles^−1 seconds^−1. Further, on MCH-5 (setting [1]), the pKi is 7.92 and the “MCH-5 k3/Ki” value is reported as 155,000 moles^−1 seconds^−1. Further, on CPP32 (setting [1]), the “CPP32 k3/Ki” value was 11,200 moles^−1 seconds^−1 and the pKi was 5.95. In addition, at MCH-2 (setting [1]), the negative logarithm of the Ki (pKi) is 7.23 and the “MCH-2 k3/Ki” value is reported as 50,000 moles^−1 seconds^−1.

For `C[C@H](NC(=O)C(=O)NCc1cccc2ccccc12)C(=O)N[C@@H](CC(=O)O)C(=O)COc1c(F)c(F)cc(F)c1F` [Example 33], on mICE (setting [1]), the pKi was 8.25 and the “mICE k3/Ki” value is listed as 2,590,000 moles^−1 seconds^−1. For the same compound, at MCH-5 (setting [1]), the pKi was 8.01 and the “MCH-5 k3/Ki” value is 1,260,000 moles^−1 seconds^−1. On CPP32 (setting [1]), the “CPP32 k3/Ki” value was 158,000 moles^−1 seconds^−1 and the pKi was 7.21. Besides, on MCH-2 (setting [1]), the pKi was 7.80 and the “MCH-2 k3/Ki” value was 335,000 moles^−1 seconds^−1.

For `CC(C)[C@H](NC(=O)C(=O)Nc1ccncc1)C(=O)N[C@@H](CC(=O)O)C(=O)COc1c(F)c(F)cc(F)c1F` [Example 101], on mICE (setting [1]), the pKi was 4.65 and the “mICE k3/Ki” value worked out at 912 mol⁻¹ s⁻¹. Further, at MCH-5 (setting [1]), the pKi is 5.81 and the “MCH-5 k3/Ki” value is 1,140 moles^−1 seconds^−1. In addition, on CPP32 (setting [1]), the “CPP32 k3/Ki” value is 511 mol⁻¹ s⁻¹ and the pKi is 4.58. At MCH-2 (setting [1]), the pKi is 6.19 and the “MCH-2 k3/Ki” value is recorded as 5,580 moles^−1 seconds^−1.

Turning to `C[C@H](NC(=O)C(=O)Nc1cc(C(C)(C)C)ccc1C(C)(C)C)C(=O)N[C@@H](CC(=O)O)C(=O)COC(=O)c1c(Cl)cccc1Cl` [Example 60], at mICE (setting [1]), the pKi is 7.59 and the “mICE k3/Ki” value is on record as 289,000 moles^−1 seconds^−1. In addition, at MCH-5 (setting [1]), the pKi was 7.85 and the “MCH-5 k3/Ki” value was 306,000 moles^−1 seconds^−1. In addition, at CPP32 (setting [1]), the “CPP32 k3/Ki” value is on record as 189,000 moles^−1 seconds^−1 and the pKi is 7.24. At MCH-2 (setting [1]), the pKi is 7.31 and the “MCH-2 k3/Ki” value is 146,000 moles^−1 seconds^−1.

On to `CC(C)[C@H](NC(=O)C(=O)NC12CC3CC(CC(C3)C1)C2)C(=O)N[C@@H](CC(=O)O)C(=O)COc1c(F)c(F)cc(F)c1F` [Example 89], for which, at mICE (setting [1]), the pKi was 7.28 and the “mICE k3/Ki” value was 184,000 moles^−1 seconds^−1. At MCH-5 (setting [1]), the pKi is 7.40 and the “MCH-5 k3/Ki” value is recorded as 59,900 moles^−1 seconds^−1. Further, on CPP32 (setting [1]), the “CPP32 k3/Ki” value is given as 6,330 moles^−1 seconds^−1 and the pKi is 5.82. Moreover, on MCH-2 (setting [1]), the pKi is 6.82 and the “MCH-2 k3/Ki” value is listed as 10,700 moles^−1 seconds^−1.

The pKi is the Ki on a negative log10 scale, so that one unit is a factor of ten.
